Legend:
SORVU (shattercane) = experiment: Pre-emergence herbicidal activity, warm season; format: in vivo, Sorghum vulgare; details: for Pre-emergence activity (GR80) SORVU: GR80 = lowest tested rate (300, 100, 30, 10 g/ha) with 80% or greater inhibition, approx. 14 days after treating, 30/21° C.
How it was run: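 Activity is expressed as the rate giving 80% inhibition, with 300, 100, 30 and 10 g/ha typically tested. An asterisk marks activity short of 80% at the top rate. Warm-season grasses were held at 30/21 °C; cool-season blackgrass and wild buckwheat at 18/13 °C; scoring at about 14 days.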

AVEFA (wild oat) = experiment: Post-emergence herbicidal activity, cool season; format: in vivo, Avena fatua; details: abraded plants sprayed at 300, 100, 30 and 10 g/ha; about 14 days after treatment
Procedure: In another set of tests, the post-emergence activity of compounds of this invention was evaluated on the cool season species listed above. The following procedure was used.
A pre-prepared topsoil mixture (described above) was placed in a pot and compacted to a depth of 1.0 to 1.25 cm from the top of the pot. Seeds of each of several monocotyledonous and dicotyledonous annual plant species were placed on top of the soil. The seeds were covered with a mixture of 50% topsoil and 50% Rediearth™ in sufficient quantity to level-fill the pots. The pots were then placed on a greenhouse bench and subirrigated as needed.
When plants growing from the seeds had emerged and reached a suitable growth stage for post-emergence treatment, typically 9 to 14 days after planting, above-ground parts of the plants were subjected to a pre-treatment involving abrasion to create greater opportunity for foliar uptake of subsequently applied compounds. Abrasion was performed using garnet 200w particles applied with a Sears Craftsman hand-held sandblaster operated at approximately 850 kPa (50 psig) pressure.
A known amount of each test compound dissolved or suspended in an appropriate organic solvent was diluted with a 50:50 mix of acetone and water and applied to the plants by spraying with a standard spray nozzle in a spray volume of […] at a spray pressure of 511 kPa (30 psig). Only the compounds of Examples 1, 8-15 and 17-22 were included in post-emergence tests. Application rates for these compounds were 300, 100, 30 and 10 g/ha. Control plants were abraded but not sprayed.
After treatment the plants were placed in a greenhouse with an 18/13° C. day/night temperature regime and were subsequently watered as needed for growth. Approximately 14 days after treatment, the plants were observed and herbicidal efficacy recorded as percent inhibition by comparison with control plants. GR80 values were assigned for each compound as described above for the pre-emergence tests.

[1] = system: BRAPP (broadleaf signalgrass); experiment: Pre-plant incorporated (PPI) herbicidal activity, warm season; format: in vivo, Brachiaria platyphylla; details: for inhibition at 10 g/ha / inhibition at 30 g/ha / inhibition at 100 g/ha / inhibition at 300 g/ha / inhibition at 900 g/ha: Urochloa platyphylla, read-out: Percent inhibition BRAPP; for inhibition at 10 g/ha / inhibition at 30 g/ha / inhibition at 100 g/ha / inhibition at 300 g/ha / inhibition at 900 g/ha / Percent inhibition BRAPP: PPI application; for PPI activity GR80, BRAPP: pre-plant incorporated, lowest tested rate with 80% or greater inhibition, about 14 days
Procedure: (§1) In another set of tests, the pre-plant incorporated (PPI) activity of compounds of this invention was evaluated on the same species as for the pre-emergence tests described above. In the PPI tests the following procedure, designed to simulate PPI application, was used.
(§2) A pre-prepared topsoil mixture (described above) was placed in a pot and compacted to a depth of 1.0 to 1.25 cm from the top of the pot. Seeds of each of several monocotyledonous and dicotyledonous annual plant species were placed on top of the soil. A sufficient quantity of soil to cover the seeds and level fill the pot was weighed into an open container. A known amount of the test compound was dissolved or suspended in an organic solvent and applied by spraying to this cover soil. The cover soil was thoroughly mixed to distribute the test compound throughout the cover soil, and was then applied as a cover layer over the seeds. Untreated soil was used as a cover layer for control pots. After treatment the plants were placed in a greenhouse where they received 0.64 cm of overhead irrigation. All subsequent watering consisted of a light overhead mist and/or subirrigation as needed for germination and growth. Tables 9 and 10 below relate to warm season plant species which were placed after pre-emergence treatment in a greenhouse with a 30/21° C. day/night temperature regime. Tables 11 and 12 below relates to cool season plant species placed after pre-emergence treatment in a greenhouse or growth chamber with an 18/13° C. day/night temperature regime. Only the compounds of Examples 1, 6, 8, 11, 13 and 15-20 were included in PPI tests.
(§3) Approximately 14 days after planting and treating, the plants were observed and herbicidal efficacy recorded as percent inhibition by comparison with untreated plants.

SINAR (wild mustard) = experiment: Pre-plant incorporated (PPI) herbicidal activity, cool season; format: in vivo, Sinapis arvensis; details: for inhibition at 30 g/ha / inhibition at 100 g/ha / inhibition at 300 g/ha / inhibition at 900 g/ha / inhibition at 10 g/ha: Brassica, read-out: Percent inhibition SINAR; for inhibition at 30 g/ha / inhibition at 100 g/ha / inhibition at 300 g/ha / inhibition at 900 g/ha / inhibition at 10 g/ha / Percent inhibition SINAR: weed, PPI application; for PPI activity GR80, SINAR: pre-plant incorporated, lowest tested rate with 80% or greater inhibition, about 14 days
Procedure: as §1, §2, §3

PANDI (fall panicum) = experiment: Pre-plant incorporated (PPI) herbicidal activity, warm season; format: in vivo, Panicum dichotomiflorum; details: for Percent inhibition PANDI: PPI application
Procedure: as §1, §2, §3

SETFA (giant foxtail) = experiment: as above; format: in vivo, Setaria faberi; details: for inhibition at 10 g/ha / inhibition at 30 g/ha / inhibition at 100 g/ha / inhibition at 300 g/ha / inhibition at 900 g/ha: Setaria faberi, read-out: Percent inhibition SETFA; for inhibition at 10 g/ha / inhibition at 30 g/ha / inhibition at 100 g/ha / inhibition at 300 g/ha / inhibition at 900 g/ha / Percent inhibition SETFA: PPI application; for PPI activity GR80, SETFA: pre-plant incorporated, lowest tested rate with 80% or greater inhibition, about 14 days
Procedure: as §1, §2, §3

CCN(CC)C(=O)n1cnc(S(=O)(=O)C(F)(F)Br)n1 [Example 1, 3-(bromodifluoromethylsulfonyl)-1-(N,N-diethylcarbamoyl)-1,2,4-triazole]
Pre-emergence activity (GR80) SORVU (SORVU (shattercane)): * (activity observed, at least at highest rate, but <80% inhibition) | inhibition at 10 g/ha (SORVU (shattercane); Sorghum bicolor, pre-emergence application, 10 g/ha, read-out: Percent inhibition, weed SORVU): 0% | inhibition at 30 g/ha (SORVU (shattercane); Sorghum bicolor, pre-emergence application, 30 g/ha, read-out: Percent inhibition, weed SORVU): 0% | inhibition at 100 g/ha (SORVU (shattercane); Sorghum bicolor, pre-emergence application, 100 g/ha, read-out: Percent inhibition, weed SORVU): 60% | inhibition at 300 g/ha (SORVU (shattercane); Sorghum bicolor, pre-emergence application, 300 g/ha, read-out: Percent inhibition, weed SORVU): 80% | inhibition at 900 g/ha (SORVU (shattercane); Sorghum bicolor, pre-emergence application, 900 g/ha, read-out: Percent inhibition, weed SORVU): 95% | Post-emergence activity GR80, AVEFA (AVEFA (wild oat)): [empty] | inhibition at 10 g/ha ([1]; 10 g/ha): 0% | inhibition at 30 g/ha ([1]; 30 g/ha): 0% | inhibition at 100 g/ha ([1]; 100 g/ha): 100% | inhibition at 300 g/ha ([1]; 300 g/ha): 90% | inhibition at 900 g/ha ([1]; 900 g/ha): 100% | PPI activity GR80, BRAPP [1]: 100 g/ha | inhibition at 30 g/ha (SINAR (wild mustard); 30 g/ha): 100% | inhibition at 100 g/ha (SINAR (wild mustard); 100 g/ha): 100% | inhibition at 300 g/ha (SINAR (wild mustard); 300 g/ha): 100% | inhibition at 900 g/ha (SINAR (wild mustard); 900 g/ha): 100% | PPI activity GR80, SINAR (SINAR (wild mustard)): 100 g/ha | PPI activity GR80, PANDI (PANDI (fall panicum); pre-plant incorporated, lowest tested rate with 80% or greater inhibition, about 14 days): 100 g/ha | inhibition at 10 g/ha (SETFA (giant foxtail); 10 g/ha): 100% | inhibition at 30 g/ha (SETFA (giant foxtail); 30 g/ha): 70% | inhibition at 100 g/ha (SETFA (giant foxtail); 100 g/ha): 100% | inhibition at 300 g/ha (SETFA (giant foxtail); 300 g/ha): 100% | inhibition at 900 g/ha (SETFA (giant foxtail); 900 g/ha): 100% | PPI activity GR80, SETFA (SETFA (giant foxtail)): 30 g/ha

CCN(CC)C(=O)n1cnc(S(=O)(=O)C(F)(F)C(F)(F)SC)n1 [Example 14]
Pre-emergence activity (GR80) SORVU (SORVU (shattercane)): * (activity observed, at least at highest rate, but <80% inhibition) | Post-emergence activity GR80, AVEFA (AVEFA (wild oat)): [empty]

C=C(C)CC(F)(F)S(=O)(=O)c1ncn(C(=O)N(CC)CC)n1 [Example 18]
Pre-emergence activity (GR80) SORVU (SORVU (shattercane)): * (activity observed, at least at highest rate, but <80% inhibition) | Post-emergence activity GR80, AVEFA (AVEFA (wild oat)): [empty] | inhibition at 10 g/ha ([1]; 10 g/ha): 0% | inhibition at 30 g/ha ([1]; 30 g/ha): 0% | inhibition at 100 g/ha ([1]; 100 g/ha): 0% | inhibition at 300 g/ha ([1]; 300 g/ha): 100% | inhibition at 900 g/ha ([1]; 900 g/ha): 100% | PPI activity GR80, BRAPP [1]: 100 g/ha | inhibition at 10 g/ha (SINAR (wild mustard); 10 g/ha): 100% | inhibition at 30 g/ha (SINAR (wild mustard); 30 g/ha): 100% | inhibition at 100 g/ha (SINAR (wild mustard); 100 g/ha): 80% | inhibition at 300 g/ha (SINAR (wild mustard); 300 g/ha): 100% | inhibition at 900 g/ha (SINAR (wild mustard); 900 g/ha): 100% | PPI activity GR80, SINAR (SINAR (wild mustard)): 10 g/ha | inhibition at 10 g/ha (SETFA (giant foxtail); 10 g/ha): 100% | inhibition at 30 g/ha (SETFA (giant foxtail); 30 g/ha): 90% | inhibition at 100 g/ha (SETFA (giant foxtail); 100 g/ha): 90% | inhibition at 300 g/ha (SETFA (giant foxtail); 300 g/ha): 100% | inhibition at 900 g/ha (SETFA (giant foxtail); 900 g/ha): 100% | PPI activity GR80, SETFA (SETFA (giant foxtail)): 100 g/ha

C=C(Br)CC(F)(F)S(=O)(=O)c1ncn(C(=O)N(CC)CC)n1 [Example 19]
Pre-emergence activity (GR80) SORVU (SORVU (shattercane)): 300 g/ha | Post-emergence activity GR80, AVEFA (AVEFA (wild oat)): [empty] | inhibition at 10 g/ha ([1]; 10 g/ha): 0% | inhibition at 30 g/ha ([1]; 30 g/ha): 0% | inhibition at 100 g/ha ([1]; 100 g/ha): 30% | inhibition at 300 g/ha ([1]; 300 g/ha): 100% | inhibition at 900 g/ha ([1]; 900 g/ha): 100% | PPI activity GR80, BRAPP [1]: 300 g/ha | inhibition at 10 g/ha (SINAR (wild mustard); 10 g/ha): 100% | inhibition at 100 g/ha (SINAR (wild mustard); 100 g/ha): 100% | inhibition at 300 g/ha (SINAR (wild mustard); 300 g/ha): 100% | inhibition at 900 g/ha (SINAR (wild mustard); 900 g/ha): 100% | PPI activity GR80, SINAR (SINAR (wild mustard)): 300 g/ha | inhibition at 10 g/ha (SETFA (giant foxtail); 10 g/ha): 90% | inhibition at 30 g/ha (SETFA (giant foxtail); 30 g/ha): 100% | inhibition at 100 g/ha (SETFA (giant foxtail); 100 g/ha): 90% | inhibition at 300 g/ha (SETFA (giant foxtail); 300 g/ha): 100% | inhibition at 900 g/ha (SETFA (giant foxtail); 900 g/ha): 100% | PPI activity GR80, SETFA (SETFA (giant foxtail)): 30 g/ha

CCN(CC)C(=O)n1cnc(S(=O)(=O)C(F)(F)SCc2ccccc2)n1 [Example 10]
Post-emergence activity GR80, AVEFA (AVEFA (wild oat)): [empty] | Percent inhibition BRAPP ([1]; 10 g/ha): 0% | Percent inhibition BRAPP ([1]; 30 g/ha): 20% | Percent inhibition BRAPP ([1]; 100 g/ha): 70% | Percent inhibition BRAPP ([1]; 300 g/ha): 100% | Percent inhibition BRAPP ([1]; 900 g/ha): 100% | Percent inhibition SINAR (SINAR (wild mustard); 10 g/ha): 0% | Percent inhibition SINAR (SINAR (wild mustard); 30 g/ha): 90% | Percent inhibition SINAR (SINAR (wild mustard); 100 g/ha): 100% | Percent inhibition SINAR (SINAR (wild mustard); 300 g/ha): 80% | Percent inhibition SINAR (SINAR (wild mustard); 900 g/ha): 100% | Percent inhibition PANDI (PANDI (fall panicum); 10 g/ha): 0% | Percent inhibition PANDI (PANDI (fall panicum); 30 g/ha): 50% | Percent inhibition PANDI (PANDI (fall panicum); 100 g/ha): 100% | Percent inhibition PANDI (PANDI (fall panicum); 300 g/ha): 100% | Percent inhibition PANDI (PANDI (fall panicum); 900 g/ha): 100% | Percent inhibition SETFA (SETFA (giant foxtail); 10 g/ha): 0% | Percent inhibition SETFA (SETFA (giant foxtail); 30 g/ha): 60% | Percent inhibition SETFA (SETFA (giant foxtail); 100 g/ha): 80% | Percent inhibition SETFA (SETFA (giant foxtail); 300 g/ha): 100% | Percent inhibition SETFA (SETFA (giant foxtail); 900 g/ha): 100%
